Results reported in paper PMC4558152, “A small molecule inhibitor of atypical protein kinase C signaling inhibits pancreatic cancer cell transformed growth and invasion” (Oncotarget, 2015).

Biological target: T1, PKCζ (Homo sapiens, UniProt Q05513)
T1 construct: gene PRKCZ
T1 sequence (Q05513 1-113): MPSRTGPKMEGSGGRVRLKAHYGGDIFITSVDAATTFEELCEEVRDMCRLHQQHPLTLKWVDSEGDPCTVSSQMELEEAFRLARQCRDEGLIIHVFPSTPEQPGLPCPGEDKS
T1 sequence (Q9NPB6 whole entry partner): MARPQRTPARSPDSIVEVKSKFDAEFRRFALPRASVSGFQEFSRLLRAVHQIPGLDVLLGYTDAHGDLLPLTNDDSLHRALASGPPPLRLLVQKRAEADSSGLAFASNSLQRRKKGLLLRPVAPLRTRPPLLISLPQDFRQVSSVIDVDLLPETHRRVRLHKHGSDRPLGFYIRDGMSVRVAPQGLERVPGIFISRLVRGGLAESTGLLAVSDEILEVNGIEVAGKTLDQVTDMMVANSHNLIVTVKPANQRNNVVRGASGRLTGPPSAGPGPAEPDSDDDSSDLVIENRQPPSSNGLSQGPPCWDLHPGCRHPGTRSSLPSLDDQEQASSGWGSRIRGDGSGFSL

Compound: O=C(O)CC([S][Au])C(=O)O (stereo not shown) [ATM, Aurothiomalate]
- IC50: 3 µM
